# Legend:
# Format in all cases: in vivo
# [1] = tested on: yellow nutsedge (Cyperus esculentus); test: Test B pre-/postemergence plant response
# Method in brief: (§1)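 Visual scoring from 0 (no effect) to 100 (complete control) against untreated controls was done 13 to 15 days after greenhouse treatment. Chemicals were formulated in a surfactant-containing non-phytotoxic solvent and applied to soil preemergence or to 1- to 4-leaf (2-18 cm) plants postemergence.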
# wild oat (Avena fatua) = test: Test B pre-/postemergence plant response
# Method in brief: as §1
# [2] = tested on: wheat (Triticum aestivum); test: Test B pre-/postemergence plant response
# Method in brief: as §1
# [3] = tested on: velvetleaf (Abutilon theophrasti); test: Test A pre-/postemergence plant response
# Method in brief: (§2)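 Soil: loam blended with sand. Formulation: non-phytotoxic solvent mixture plus surfactant, applied as preemergence directed soil spray and as postemergence spray. Scoring: visual, 0 no effect to 100 complete control, roughly 10 days post-treatment in greenhouse.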
# [4] = tested on: large crabgrass (Digitaria sanguinalis); test: Test A pre-/postemergence plant response
# Method in brief: as §2
# corn (Zea mays) = test: Test A pre-/postemergence plant response
# Method in brief: as §2
# [5] = tested on: morningglory (Ipomoea coccinea); test: Test A pre-/postemergence plant response
# Method in brief: as §2
# [6] = tested on: giant foxtail (Setaria faberi); test: Test A pre-/postemergence plant response
# Method in brief: as §2
# [7] = tested on: barnyardgrass (Echinochloa crus-galli); test: Test A pre-/postemergence plant response
# Method in brief: as §2
# [8] = tested on: windgrass (Apera spica-venti); test: Test B postemergence plant response; settings: Postemergence
# Method in brief: (§3)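 Emerged plants, 1- to 4-leaf stage, treated; greenhouse 13–15 d; eye-scored vs untreated controls (0–100 scale).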
# [9] = tested on: winter barley (Hordeum vulgare); test: Test B postemergence plant response; settings: Postemergence
# Method in brief: as §3
# [10] = tested on: chickweed (Stellaria media); test: Test B postemergence plant response; settings: Postemergence
# Method in brief: as §3
# [11] = tested on: canarygrass (Phalaris minor); test: Test B postemergence plant response; settings: Postemergence
# Method in brief: as §3
# [12] = Postemergence, 16 g ai/ha, scale 0 to 100
# [13] = Postemergence, 31 g ai/ha, scale 0 to 100, 0 no effect, 100 complete control
# [14] = Postemergence, 62 g ai/ha, scale 0 to 100
# [15] = Postemergence, 125 g ai/ha, scale 0 to 100
# [16] = Preemergence, 16 g ai/ha, scale 0 to 100 (0 no effect, 100 complete control)
# [17] = Preemergence, 31 g ai/ha, 0 to 100 scale, 0 no effect, 100 complete control
# [18] = Preemergence, 62 g ai/ha, scale 0 to 100
# [19] = Preemergence, 125 g ai/ha, scale 0 to 100
# [20] = Postemergence, 125 g ai/ha, 0 to 100 scale, 0 no effect, 100 complete control
# [21] = Postemergence, 500 g ai/ha, 0 to 100 scale, 0 no effect, 100 complete control
# [22] = Preemergence, 125 g ai/ha, 0 to 100 scale (0 no effect, 100 complete control)
# [23] = Preemergence, 500 g ai/ha, 0 to 100 scale (0 no effect, 100 complete control)
# [24] = 31 g ai/ha, scale 0 to 100, 0 no effect, 100 complete control
# [25] = Postemergence, 250 g ai/ha, scale 0 to 100
# [26] = Preemergence, 250 g ai/ha, scale 0 to 100
structure (smiles),measurement,setting,value
CCc1cc(-c2ccc(C(F)(F)F)cc2)nn1-c1c(OC(=O)OC(C)C)cnn(C)c1=O [Compound 12],"Plant response rating, Nutsedge, Yellow",[1]; [12],0
same,"Plant response rating, Nutsedge, Yellow",[1]; [13],0
same,"Plant response rating, Nutsedge, Yellow",[1]; [14],0
same,"Plant response rating, Nutsedge, Yellow",[1]; [15],0
same,"Plant response rating, Nutsedge, Yellow",[1]; [16],0
same,"Plant response rating, Nutsedge, Yellow",[1]; [17],0
same,"Plant response rating, Nutsedge, Yellow",[1]; [18],0
same,"Plant response rating, Nutsedge, Yellow",[1]; [19],0
same,"Plant response rating, Oat, Wild",wild oat (Avena fatua); [12],100
same,"Plant response rating, Oat, Wild",wild oat (Avena fatua); [13],100
same,"Plant response rating, Oat, Wild",wild oat (Avena fatua); [14],100
same,"Plant response rating, Oat, Wild",wild oat (Avena fatua); [15],100
same,"Plant response rating, Oat, Wild",wild oat (Avena fatua); [16],60
same,"Plant response rating, Oat, Wild",wild oat (Avena fatua); [17],90
same,"Plant response rating, Oat, Wild",wild oat (Avena fatua); [18],95
same,"Plant response rating, Oat, Wild",wild oat (Avena fatua); [19],98
same,"Plant response rating, Wheat",[2]; [12],90
same,"Plant response rating, Wheat",[2]; [13],95
same,"Plant response rating, Wheat",[2]; [14],95
same,"Plant response rating, Wheat",[2]; [15],100
same,"Plant response rating, Wheat",[2]; [16],20
same,"Plant response rating, Wheat",[2]; [17],90
same,"Plant response rating, Wheat",[2]; [18],95
same,"Plant response rating, Wheat",[2]; [19],95
same,"Plant response rating, Velvetleaf",[3]; [20],0
same,"Plant response rating, Velvetleaf",[3]; [21],0
same,"Plant response rating, Velvetleaf",[3]; [22],0
same,"Plant response rating, Velvetleaf",[3]; [23],0
same,"Plant response rating, Crabgrass, Large",[4]; [20],90
same,"Plant response rating, Crabgrass, Large",[4]; [21],100
same,"Plant response rating, Crabgrass, Large",[4]; [22],100
same,"Plant response rating, Crabgrass, Large",[4]; [23],100
same,"Plant response rating, Corn",corn (Zea mays); [20],90
same,"Plant response rating, Corn",corn (Zea mays); [21],90
same,"Plant response rating, Corn",corn (Zea mays); [22],80
same,"Plant response rating, Corn",corn (Zea mays); [23],90
same,"Plant response rating, Morningglory",[5]; [20],0
same,"Plant response rating, Morningglory",[5]; [21],0
same,"Plant response rating, Morningglory",[5]; [22],0
same,"Plant response rating, Morningglory",[5]; [23],0
same,"Plant response rating, Foxtail, Giant",[6]; [20],80
same,"Plant response rating, Foxtail, Giant",[6]; [21],100
same,"Plant response rating, Foxtail, Giant",[6]; [22],100
same,"Plant response rating, Foxtail, Giant",[6]; [23],100
same,"Plant response rating, Barnyardgrass",[7]; [20],90
same,"Plant response rating, Barnyardgrass",[7]; [21],100
same,"Plant response rating, Barnyardgrass",[7]; [22],100
same,"Plant response rating, Barnyardgrass",[7]; [23],100
same,"Plant response rating, Windgrass","[8]; 16 g ai/ha, scale 0 to 100",100
same,"Plant response rating, Windgrass",[8]; [24],100
same,"Plant response rating, Windgrass","[8]; 62 g ai/ha, scale 0 to 100",100
same,"Plant response rating, Windgrass","[8]; 125 g ai/ha, scale 0 to 100",100
same,"Plant response rating, Barley","[9]; 16 g ai/ha, scale 0 to 100, 0 no effect, 100 complete control",80
same,"Plant response rating, Barley",[9]; [24],95
same,"Plant response rating, Barley","[9]; 62 g ai/ha, scale 0 to 100",100
same,"Plant response rating, Barley","[9]; 125 g ai/ha, scale 0 to 100",100
same,"Plant response rating, Chickweed","[10]; 16 g ai/ha, scale 0 to 100",0
same,"Plant response rating, Chickweed",[10]; [24],0
same,"Plant response rating, Chickweed","[10]; 62 g ai/ha, scale 0 to 100",0
same,"Plant response rating, Chickweed","[10]; 125 g ai/ha, scale 0 to 100",0
same,"Plant response rating, Canarygrass","[11]; 16 g ai/ha, scale 0 to 100",100
same,"Plant response rating, Canarygrass",[11]; [24],100
same,"Plant response rating, Canarygrass","[11]; 62 g ai/ha, scale 0 to 100",100
same,"Plant response rating, Canarygrass","[11]; 125 g ai/ha, scale 0 to 100",100
Cc1nn(C)c(=O)c(-n2nc(-c3ccc(Cl)cc3)cc2C)c1O [Compound 15],"Plant response rating, Nutsedge, Yellow",[1]; [14],0
same,"Plant response rating, Nutsedge, Yellow",[1]; [15],0
same,"Plant response rating, Nutsedge, Yellow",[1]; [25],0
same,"Plant response rating, Nutsedge, Yellow",[1]; [17],0
same,"Plant response rating, Nutsedge, Yellow",[1]; [18],0
same,"Plant response rating, Nutsedge, Yellow",[1]; [26],0
same,"Plant response rating, Oat, Wild",wild oat (Avena fatua); [13],95
same,"Plant response rating, Oat, Wild",wild oat (Avena fatua); [14],98
same,"Plant response rating, Oat, Wild",wild oat (Avena fatua); [15],98
same,"Plant response rating, Oat, Wild",wild oat (Avena fatua); [25],100
same,"Plant response rating, Oat, Wild",wild oat (Avena fatua); [17],10
same,"Plant response rating, Oat, Wild",wild oat (Avena fatua); [18],70
same,"Plant response rating, Oat, Wild",wild oat (Avena fatua); [19],80
same,"Plant response rating, Oat, Wild",wild oat (Avena fatua); [26],85
same,"Plant response rating, Wheat",[2]; [13],5
same,"Plant response rating, Wheat",[2]; [14],60
same,"Plant response rating, Wheat",[2]; [15],70
same,"Plant response rating, Wheat",[2]; [25],85
same,"Plant response rating, Wheat",[2]; [17],0
same,"Plant response rating, Wheat",[2]; [18],60
same,"Plant response rating, Wheat",[2]; [19],60
same,"Plant response rating, Wheat",[2]; [26],80
same,"Plant response rating, Velvetleaf",[3]; [20],0
same,"Plant response rating, Velvetleaf",[3]; [21],0
same,"Plant response rating, Velvetleaf",[3]; [22],0
same,"Plant response rating, Velvetleaf",[3]; [23],0
same,"Plant response rating, Crabgrass, Large",[4]; [20],90
same,"Plant response rating, Crabgrass, Large",[4]; [21],100
same,"Plant response rating, Crabgrass, Large",[4]; [22],80
same,"Plant response rating, Crabgrass, Large",[4]; [23],100
same,"Plant response rating, Corn",corn (Zea mays); [20],70
same,"Plant response rating, Corn",corn (Zea mays); [21],90
same,"Plant response rating, Corn",corn (Zea mays); [22],50
same,"Plant response rating, Corn",corn (Zea mays); [23],90
same,"Plant response rating, Morningglory",[5]; [20],0
same,"Plant response rating, Morningglory",[5]; [21],0
same,"Plant response rating, Morningglory",[5]; [22],0
same,"Plant response rating, Morningglory",[5]; [23],0
same,"Plant response rating, Foxtail, Giant",[6]; [20],90
same,"Plant response rating, Foxtail, Giant",[6]; [21],100
same,"Plant response rating, Foxtail, Giant",[6]; [22],90
same,"Plant response rating, Foxtail, Giant",[6]; [23],100
same,"Plant response rating, Barnyardgrass",[7]; [20],100
same,"Plant response rating, Barnyardgrass",[7]; [21],100
same,"Plant response rating, Barnyardgrass",[7]; [22],100
same,"Plant response rating, Barnyardgrass",[7]; [23],100
same,"Plant response rating, Windgrass",[8]; [24],90
same,"Plant response rating, Windgrass","[8]; 62 g ai/ha, scale 0 to 100",90
same,"Plant response rating, Windgrass","[8]; 125 g ai/ha, scale 0 to 100",100
same,"Plant response rating, Windgrass","[8]; 250 g ai/ha, scale 0 to 100",100
same,"Plant response rating, Barley",[9]; [24],10
same,"Plant response rating, Barley","[9]; 62 g ai/ha, scale 0 to 100",10
same,"Plant response rating, Barley","[9]; 125 g ai/ha, scale 0 to 100",90
same,"Plant response rating, Chickweed",[10]; [24],0
same,"Plant response rating, Chickweed","[10]; 62 g ai/ha, scale 0 to 100",0
same,"Plant response rating, Chickweed","[10]; 125 g ai/ha, scale 0 to 100",0
same,"Plant response rating, Chickweed","[10]; 250 g ai/ha, scale 0 to 100",0
same,"Plant response rating, Canarygrass",[11]; [24],35
same,"Plant response rating, Canarygrass","[11]; 62 g ai/ha, scale 0 to 100",35
same,"Plant response rating, Canarygrass","[11]; 125 g ai/ha, scale 0 to 100",85
